Measurements from patent publication US20240382520A1, “COMPOSITION FOR PREVENTING AND TREATING CANCER THROUGH MITOCHONDRIAL METABOLISM REGULATION CONTAINING NANOGRAPHENE STRUCTURE” (SEOUL NATIONAL UNIVERSITY R & DB FOUNDATION, priority 2021, published 2024).

Tested on: colon cancer
Experiment: Oral administration in colon cancer model induced with Azoxymethane and Dextran sodium sulfate (DSS)
Type: in vivo, mouse
Experimental: It was determined whether orally administering the nanographene structure or a modified structure thereof has an effect on cancer occurrence and the mitigation of progression in vivo. Specifically, according to Table 1, rats that were not induced with colon cancer (sham group) and rats that were induced with colon cancer and administered with nanographene oxide (danGO group) were used, and rats that were induced with colon cancer were used as a negative control group (vehicle group), and as a positive control group, rats that were administered with 5-fluorouracil (5-FU), which is an anticancer drug, were prepared. In the negative control group, colon cancer was induced by using Azoxymethane and Dextran sodium sulfate (DSS). In the danGO group which was the experimental group, danGO was orally administered at a dose of 250 μg/mouse 5 times every 3 days to rats that were induced with colon cancer.
In the same manner as in Example 7-1, the effect of modified nanographene oxide, NGO-NH2, on in vivo cancer occurrence and progression mitigation was confirmed.
Next, the spleen was separated and the size and weight were measured in order to determine the effect on the degree of systemic inflammation. The spleen is an important lymphoid organ, accounting for about 25% of the body weight of the lymphatic organ. […]

Compound: O=c1[nH]cc(F)c(=O)[nH]1 [5-FU, 5-fluorouracil]
- length of the colon compared to the vehicle group (Example 7-1, oral, danGO 250 μg/mouse 5 times every 3 days): preserved statistically significantly
- alleviation of disease (colon length and diameter) compared to the vehicle group (Example 7-2): significantly alleviated
